# Active and inactive are the calls of the source. No cut-off for these calls is given here.
# Experiments:
# [1] = test system: MRC5; experiment: Cytotoxicity against human MRC5 cells; type: cell-based
# [2] = Inhibition of Escherichia coli IspC
# [3] = Inhibition of Plasmodium falciparum IspC
# [4] = test system: Plasmodium falciparum; experiment: Antimicrobial activity against chloroquine-resistant Plasmodium falciparum K1 infected in human erythrocytes assessed as inhibition of parasite replication; type: functional, organism-based
# [5] = test system: Plasmodium berghei; experiment: Antimalarial activity against Plasmodium berghei ANKA infected in Swiss mouse assessed as suppression of infected RBC at 40 mg/kg, ip bid for 5 days coadministered with ritonavir 10 mg/kg, po; type: functional
# [6] = test system: Plasmodium berghei; experiment: Antimalarial activity against Plasmodium berghei ANKA infected in Swiss mouse assessed as survival at 40 mg/kg, ip bid for 5 days coadministered with ritonavir 10 mg/kg, po
# [7] = test system: Plasmodium berghei; experiment: Antimalarial activity against Plasmodium berghei ANKA infected in Swiss mouse assessed as survival at 10 mg/kg, ip qd for 5 days coadministered with ritonavir 10 mg/kg, po
# [8] = test system: Plasmodium berghei; experiment: Antimalarial activity against Plasmodium berghei ANKA infected in Swiss mouse assessed as suppression of infected RBC at 10 mg/kg, ip qd for 5 days coadministered with ritonavir 10 mg/kg, po measured on day 4; type: functional
# [9] = Plasmodium falciparum, K1, read-out: IC50
structure (smiles),measurement,setting,value
CC(C)N(O)C(=O)CCC(c1ccccc1)P(=O)(O)O (centres undefined),IC50,[1],> 64000 nM
same,IC50,[2],Not Active
same,IC50,[3],Not Active
same,IC50,[4],Not Active
O=C(CCC(c1ccc(F)c(F)c1)P(=O)(O)O)NO (centres undefined),IC50,[1],> 64000 nM
same,IC50,[2]; read-out: IC50,210 nM
same,Activity,[5],89%
same,IC50,[3]; read-out: IC50,3 nM
same,IC50,[4]; [9],380 nM
same,Survival,[6],Active
CCN(O)C(=O)CCC(c1ccccc1)P(=O)(O)O (centres undefined),IC50,[1],> 64000 nM
same,IC50,[2]; read-out: IC50,15000 nM
same,IC50,[3]; read-out: IC50,15 nM
same,IC50,[4]; [9],1300 nM
O=CN(O)CCCP(=O)(O)O [FOSMIDOMYCIN],IC50,[1],> 62000 nM
same,IC50,[2]; read-out: IC50,220 nM
same,Activity,[5],92%
same,IC50,[3]; read-out: IC50,140 nM
same,IC50,[4]; [9],3700 nM
same,Survival,[6],Active
O=C(CCC(c1cccc2ccccc12)P(=O)(O)O)NO (centres undefined),IC50,[1],> 64000 nM
same,IC50,[2]; read-out: IC50,7400 nM
same,IC50,[3]; read-out: IC50,37 nM
same,IC50,[4]; [9],2400 nM
CN(O)C(=O)CCC(c1ccc(F)c(F)c1)P(=O)(O)O (centres undefined),IC50,[1],> 64000 nM
same,Activity,[5],78%
same,IC50,[3]; read-out: IC50,3 nM
same,IC50,[4]; [9],290 nM
same,Survival,[6],inactive
CN(O)C(=O)CCC(c1cccc2ccccc12)P(=O)(O)O (centres undefined),IC50,[1],> 62000 nM
same,IC50,[2]; read-out: IC50,3800 nM
same,IC50,[3]; read-out: IC50,9 nM
same,IC50,[4]; [9],970 nM
CN(O)C(=O)CCC(c1ccc(Cl)c(Cl)c1)P(=O)(O)O (centres undefined),IC50,[1],> 64000 nM
same,IC50,[2]; read-out: IC50,290 nM
same,IC50,[3]; read-out: IC50,4 nM
same,IC50,[4]; [9],410 nM
CCN(CC)CCCC(C)Nc1ccnc2cc(Cl)ccc12 (centres undefined) [CHLOROQUINE],Survival,[7],Active
same,Activity,[8],98%

# Source: ChEMBL document CHEMBL1828585, “Reverse fosmidomycin derivatives against the antimalarial drug target IspC (Dxr)” (J Med Chem, 2011)
